The supplement of paper PMC10307832

Experiments:
Assay in all cases: relative viability (nuclei count vs DMSO), 5 days (fraction); higher = more cells survive
XMD13-2 + Bortezomib = compound: C1CC1C(=O)NC2=NNC3=C2C=CC(=C3)C4=CC(=CC=C4)C(=O)NC5CC5 [XMD13-2] + CC(C)C[C@H](NC(=O)[C@H](Cc1ccccc1)NC(=O)c1cnccn1)B(O)O [Bortezomib] (partner 0.002 µM)
Method in brief: (§1)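 After 5 days of treatment, lung cancer cells in 1536-well plates were fixed and stained in a single step (final 0.05% Triton X-100, 1% formaldehyde, 1 ug/ml Hoechst) and their nuclei counted on 4× images. Treatment had been applied by pin tool the day after seeding as one drug alone or as a fixed anchor-drug dose with five library-drug doses (not always all listed) in √10 steps. Relative viability is the nuclei count of treated wells divided by that of vehicle wells, and values are medians of duplicate plates.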

XMD13-2 + Dasatinib = compound: C1CC1C(=O)NC2=NNC3=C2C=CC(=C3)C4=CC(=CC=C4)C(=O)NC5CC5 [XMD13-2] + Cc1nc(Nc2ncc(C(=O)Nc3c(C)cccc3Cl)s2)cc(N2CCN(CCO)CC2)n1 [Dasatinib] (partner 0.075 µM)
Method in brief: as §1

Dasatinib + Trametinib = compound: Cc1nc(Nc2ncc(C(=O)Nc3c(C)cccc3Cl)s2)cc(N2CCN(CCO)CC2)n1 [Dasatinib] + CC(=O)Nc1cccc(-n2c(=O)n(C3CC3)c(=O)c3c(Nc4ccc(I)cc4F)n(C)c(=O)c(C)c32)c1 [Trametinib] (partner 0.02 µM)
Method in brief: as §1

Dasatinib + Pemetrexed = compound: Cc1nc(Nc2ncc(C(=O)Nc3c(C)cccc3Cl)s2)cc(N2CCN(CCO)CC2)n1 [Dasatinib] + Nc1nc2[nH]cc(CCc3ccc(C(=O)N[C@@H](CCC(=O)O)C(=O)O)cc3)c2c(=O)[nH]1 [Pemetrexed] (partner 0.2 µM)
Method in brief: as §1

NCI-H1355 was tested, and the relative viability (XMD13-2 + Bortezomib; first compound 0.05 µM) was 1.3, the relative viability (XMD13-2 + Bortezomib; first compound 0.1581 µM) was 1.32 and the relative viability (XMD13-2 + Bortezomib; first compound 0.5 µM) was 1.18. For the same cell line, the relative viability (XMD13-2 + Bortezomib; first compound 1.581 µM) was 1.19, the relative viability (XMD13-2 + Bortezomib; first compound 5 µM) was 1.28 and the relative viability (XMD13-2 + Dasatinib; first compound 0.05 µM) was 0.847. It also gave a relative viability (XMD13-2 + Dasatinib; first compound 0.1581 µM) of 0.839, a relative viability (XMD13-2 + Dasatinib; first compound 0.5 µM) of 0.79 and a relative viability (XMD13-2 + Dasatinib; first compound 1.581 µM) of 0.695. The relative viability (XMD13-2 + Dasatinib; first compound 5 µM) was 0.61, the relative viability (Dasatinib + Trametinib; first compound 0.005 µM) was 0.48 and the relative viability (Dasatinib + Trametinib; first compound 0.01581 µM) was 0.346. It also gave a relative viability (Dasatinib + Trametinib; first compound 0.05 µM) of 0.5, a relative viability (Dasatinib + Trametinib; first compound 0.1581 µM) of 0.293 and a relative viability (Dasatinib + Trametinib; first compound 0.5 µM) of 0.265. For the same cell line, the relative viability (Dasatinib + Pemetrexed; first compound 0.005 µM) was 1.04, the relative viability (Dasatinib + Pemetrexed; first compound 0.01581 µM) was 0.92 and the relative viability (Dasatinib + Pemetrexed; first compound 0.05 µM) was 1.1. The relative viability (Dasatinib + Pemetrexed; first compound 0.1581 µM) was 0.806 and the relative viability (Dasatinib + Pemetrexed; first compound 0.5 µM) was 0.663.
COR-L23 was tested, and the relative viability (XMD13-2 + Bortezomib; first compound 0.05 µM) was 1.12, the relative viability (XMD13-2 + Bortezomib; first compound 0.1581 µM) was 0.994 and the relative viability (XMD13-2 + Bortezomib; first compound 0.5 µM) was 1.04. For the same cell line, the relative viability (XMD13-2 + Bortezomib; first compound 1.581 µM) was 1.08, the relative viability (XMD13-2 + Bortezomib; first compound 5 µM) was 1.09 and the relative viability (XMD13-2 + Dasatinib; first compound 0.05 µM) was 0.585. For the same cell line, the relative viability (XMD13-2 + Dasatinib; first compound 0.1581 µM) was 0.544, the relative viability (XMD13-2 + Dasatinib; first compound 0.5 µM) was 0.477 and the relative viability (XMD13-2 + Dasatinib; first compound 1.581 µM) was 0.42. For the same cell line, the relative viability (XMD13-2 + Dasatinib; first compound 5 µM) was 0.497, the relative viability (Dasatinib + Trametinib; first compound 0.005 µM) was 0.563 and the relative viability (Dasatinib + Trametinib; first compound 0.01581 µM) was 0.416. It also gave a relative viability (Dasatinib + Trametinib; first compound 0.05 µM) of 0.48, a relative viability (Dasatinib + Trametinib; first compound 0.1581 µM) of 0.444 and a relative viability (Dasatinib + Trametinib; first compound 0.5 µM) of 0.281. For the same cell line, the relative viability (Dasatinib + Pemetrexed; first compound 0.005 µM) was 0.211, the relative viability (Dasatinib + Pemetrexed; first compound 0.01581 µM) was 0.196 and the relative viability (Dasatinib + Pemetrexed; first compound 0.05 µM) was 0.19. For the same cell line, the relative viability (Dasatinib + Pemetrexed; first compound 0.1581 µM) was 0.19 and the relative viability (Dasatinib + Pemetrexed; first compound 0.5 µM) was 0.18.
With NCI-H2023 the relative viability (XMD13-2 + Bortezomib; first compound 0.05 µM) was 1.16, the relative viability (XMD13-2 + Bortezomib; first compound 0.1581 µM) was 0.928 and the relative viability (XMD13-2 + Bortezomib; first compound 0.5 µM) was 1.06. For the same cell line, the relative viability (XMD13-2 + Bortezomib; first compound 1.581 µM) was 0.986, the relative viability (XMD13-2 + Bortezomib; first compound 5 µM) was 0.983 and the relative viability (XMD13-2 + Dasatinib; first compound 0.05 µM) was 0.806. It also gave a relative viability (XMD13-2 + Dasatinib; first compound 0.1581 µM) of 0.545, a relative viability (XMD13-2 + Dasatinib; first compound 0.5 µM) of 0.688 and a relative viability (XMD13-2 + Dasatinib; first compound 1.581 µM) of 0.559. It also gave a relative viability (XMD13-2 + Dasatinib; first compound 5 µM) of 0.64, a relative viability (Dasatinib + Trametinib; first compound 0.005 µM) of 0.487 and a relative viability (Dasatinib + Trametinib; first compound 0.01581 µM) of 0.49. For the same cell line, the relative viability (Dasatinib + Trametinib; first compound 0.05 µM) was 0.432, the relative viability (Dasatinib + Trametinib; first compound 0.1581 µM) was 0.364 and the relative viability (Dasatinib + Trametinib; first compound 0.5 µM) was 0.326. For the same cell line, the relative viability (Dasatinib + Pemetrexed; first compound 0.005 µM) was 0.204, the relative viability (Dasatinib + Pemetrexed; first compound 0.01581 µM) was 0.238 and the relative viability (Dasatinib + Pemetrexed; first compound 0.05 µM) was 0.195. It also gave a relative viability (Dasatinib + Pemetrexed; first compound 0.1581 µM) of 0.175 and a relative viability (Dasatinib + Pemetrexed; first compound 0.5 µM) of 0.191.
Work on A-427 yielded a relative viability (XMD13-2 + Bortezomib; first compound 0.05 µM) of 0.993, a relative viability (XMD13-2 + Bortezomib; first compound 0.1581 µM) of 1.06 and a relative viability (XMD13-2 + Bortezomib; first compound 0.5 µM) of 0.993. For the same cell line, the relative viability (XMD13-2 + Bortezomib; first compound 1.581 µM) was 0.858, the relative viability (XMD13-2 + Bortezomib; first compound 5 µM) was 0.857 and the relative viability (XMD13-2 + Dasatinib; first compound 0.05 µM) was 0.767. The relative viability (XMD13-2 + Dasatinib; first compound 0.1581 µM) was 0.792, the relative viability (XMD13-2 + Dasatinib; first compound 0.5 µM) was 0.705 and the relative viability (XMD13-2 + Dasatinib; first compound 1.581 µM) was 0.683. For the same cell line, the relative viability (XMD13-2 + Dasatinib; first compound 5 µM) was 0.536, the relative viability (Dasatinib + Trametinib; first compound 0.005 µM) was 0.76 and the relative viability (Dasatinib + Trametinib; first compound 0.01581 µM) was 0.598. The relative viability (Dasatinib + Trametinib; first compound 0.05 µM) was 0.713, the relative viability (Dasatinib + Trametinib; first compound 0.1581 µM) was 0.433 and the relative viability (Dasatinib + Trametinib; first compound 0.5 µM) was 0.408. For the same cell line, the relative viability (Dasatinib + Pemetrexed; first compound 0.005 µM) was 0.972, the relative viability (Dasatinib + Pemetrexed; first compound 0.01581 µM) was 0.832 and the relative viability (Dasatinib + Pemetrexed; first compound 0.05 µM) was 0.807. For the same cell line, the relative viability (Dasatinib + Pemetrexed; first compound 0.1581 µM) was 0.556 and the relative viability (Dasatinib + Pemetrexed; first compound 0.5 µM) was 0.619.
For NCI-H596, the relative viability (XMD13-2 + Bortezomib; first compound 0.05 µM) was 1.1, the relative viability (XMD13-2 + Bortezomib; first compound 0.1581 µM) was 0.881 and the relative viability (XMD13-2 + Bortezomib; first compound 0.5 µM) was 1.34. It also gave a relative viability (XMD13-2 + Bortezomib; first compound 1.581 µM) of 1.11, a relative viability (XMD13-2 + Bortezomib; first compound 5 µM) of 1.2 and a relative viability (XMD13-2 + Dasatinib; first compound 0.05 µM) of 0.683. For the same cell line, the relative viability (XMD13-2 + Dasatinib; first compound 0.1581 µM) was 0.571, the relative viability (XMD13-2 + Dasatinib; first compound 0.5 µM) was 0.578 and the relative viability (XMD13-2 + Dasatinib; first compound 1.581 µM) was 0.713. It also gave a relative viability (XMD13-2 + Dasatinib; first compound 5 µM) of 0.664, a relative viability (Dasatinib + Trametinib; first compound 0.005 µM) of 0.7 and a relative viability (Dasatinib + Trametinib; first compound 0.01581 µM) of 0.578. For the same cell line, the relative viability (Dasatinib + Trametinib; first compound 0.05 µM) was 0.56, the relative viability (Dasatinib + Trametinib; first compound 0.1581 µM) was 0.431 and the relative viability (Dasatinib + Trametinib; first compound 0.5 µM) was 0.323. The relative viability (Dasatinib + Pemetrexed; first compound 0.005 µM) was 0.486, the relative viability (Dasatinib + Pemetrexed; first compound 0.01581 µM) was 0.47 and the relative viability (Dasatinib + Pemetrexed; first compound 0.05 µM) was 0.439. The relative viability (Dasatinib + Pemetrexed; first compound 0.1581 µM) was 0.415 and the relative viability (Dasatinib + Pemetrexed; first compound 0.5 µM) was 0.359.
Work on LU99A yielded a relative viability (XMD13-2 + Bortezomib; first compound 0.05 µM) of 1.2, a relative viability (XMD13-2 + Bortezomib; first compound 0.1581 µM) of 1.06 and a relative viability (XMD13-2 + Bortezomib; first compound 0.5 µM) of 1.12. For the same cell line, the relative viability (XMD13-2 + Bortezomib; first compound 1.581 µM) was 0.992, the relative viability (XMD13-2 + Bortezomib; first compound 5 µM) was 0.718 and the relative viability (XMD13-2 + Dasatinib; first compound 0.05 µM) was 0.572. It also gave a relative viability (XMD13-2 + Dasatinib; first compound 0.1581 µM) of 0.646, a relative viability (XMD13-2 + Dasatinib; first compound 0.5 µM) of 0.649 and a relative viability (XMD13-2 + Dasatinib; first compound 1.581 µM) of 0.503. For the same cell line, the relative viability (XMD13-2 + Dasatinib; first compound 5 µM) was 0.456, the relative viability (Dasatinib + Trametinib; first compound 0.005 µM) was 0.539 and the relative viability (Dasatinib + Trametinib; first compound 0.01581 µM) was 0.576. It also gave a relative viability (Dasatinib + Trametinib; first compound 0.05 µM) of 0.458, a relative viability (Dasatinib + Trametinib; first compound 0.1581 µM) of 0.372 and a relative viability (Dasatinib + Trametinib; first compound 0.5 µM) of 0.328. For the same cell line, the relative viability (Dasatinib + Pemetrexed; first compound 0.005 µM) was 0.191, the relative viability (Dasatinib + Pemetrexed; first compound 0.01581 µM) was 0.158 and the relative viability (Dasatinib + Pemetrexed; first compound 0.05 µM) was 0.192. For the same cell line, the relative viability (Dasatinib + Pemetrexed; first compound 0.1581 µM) was 0.176 and the relative viability (Dasatinib + Pemetrexed; first compound 0.5 µM) was 0.16.
Work on NCI-H2009 yielded a relative viability (XMD13-2 + Bortezomib; first compound 0.05 µM) of 1.05, a relative viability (XMD13-2 + Bortezomib; first compound 0.1581 µM) of 1.12 and a relative viability (XMD13-2 + Bortezomib; first compound 0.5 µM) of 1.4. For the same cell line, the relative viability (XMD13-2 + Bortezomib; first compound 1.581 µM) was 1.02, the relative viability (XMD13-2 + Bortezomib; first compound 5 µM) was 1.01 and the relative viability (XMD13-2 + Dasatinib; first compound 0.05 µM) was 0.366. For the same cell line, the relative viability (XMD13-2 + Dasatinib; first compound 0.1581 µM) was 0.277, the relative viability (XMD13-2 + Dasatinib; first compound 0.5 µM) was 0.432 and the relative viability (XMD13-2 + Dasatinib; first compound 1.581 µM) was 0.288. For the same cell line, the relative viability (XMD13-2 + Dasatinib; first compound 5 µM) was 0.278, the relative viability (Dasatinib + Trametinib; first compound 0.005 µM) was 0.26 and the relative viability (Dasatinib + Trametinib; first compound 0.01581 µM) was 0.173. For the same cell line, the relative viability (Dasatinib + Trametinib; first compound 0.05 µM) was 0.184, the relative viability (Dasatinib + Trametinib; first compound 0.1581 µM) was 0.12 and the relative viability (Dasatinib + Trametinib; first compound 0.5 µM) was 0.0876. It also gave a relative viability (Dasatinib + Pemetrexed; first compound 0.005 µM) of 1.17, a relative viability (Dasatinib + Pemetrexed; first compound 0.01581 µM) of 1.09 and a relative viability (Dasatinib + Pemetrexed; first compound 0.05 µM) of 1.31. It also gave a relative viability (Dasatinib + Pemetrexed; first compound 0.1581 µM) of 0.946 and a relative viability (Dasatinib + Pemetrexed; first compound 0.5 µM) of 0.243.
